Columns and labels:
Assay in all cases: relative viability (nuclei count vs DMSO), 5 days (fraction); higher = more cells survive
[1] = compound: CN(C)C[C@@H]1CCn2cc(c3ccccc32)C2=C(C(=O)NC2=O)c2cn(c3ccccc23)CCO1 [Ruboxistaurin] + CC(C)C[C@H](NC(=O)[C@H](Cc1ccccc1)NC(=O)c1cnccn1)B(O)O [Bortezomib] (partner 0.002 µM)
Method in brief: (§1)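 The day after seeding in 1536-well plates, lung cancer cell lines were treated by pin tool with a single drug, or with a fixed anchor-drug dose together with five library-drug doses (not always all listed) in √10 steps. After 5 days, a combined fix-and-stain solution (final 0.05% Triton X-100, 1% formaldehyde, 1 ug/ml Hoechst) was added. Nuclei counted on 4× images gave relative viability as treated counts over vehicle counts, reported as the median of duplicate plates.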

[2] = compound: CN(C)C[C@@H]1CCn2cc(c3ccccc32)C2=C(C(=O)NC2=O)c2cn(c3ccccc23)CCO1 [Ruboxistaurin] + COc1cc2c(Oc3ccc(NC(=O)C4(C(=O)Nc5ccc(F)cc5)CC4)cc3F)ccnc2cc1OCCCN1CCOCC1 [Foretinib] (partner 0.25 µM)
Method in brief: as §1

[3] = compound: CN(C)C[C@@H]1CCn2cc(c3ccccc32)C2=C(C(=O)NC2=O)c2cn(c3ccccc23)CCO1 [Ruboxistaurin] + Cc1cc(Nc2cc(N3CCN(C)CC3)nc(Sc3ccc(NC(=O)C4CC4)cc3)n2)n[nH]1 [Tozasertib] (partner 0.1 µM)
Method in brief: as §1

[4] = compound: CN(C)C[C@@H]1CCn2cc(c3ccccc32)C2=C(C(=O)NC2=O)c2cn(c3ccccc23)CCO1 [Ruboxistaurin] + O=C(CCCCCCC(=O)Nc1ccccc1)NO [Vorinostat] (partner 1 µM)
Method in brief: as §1

[5] = compound: CN(C)C[C@@H]1CCn2cc(c3ccccc32)C2=C(C(=O)NC2=O)c2cn(c3ccccc23)CCO1 [Ruboxistaurin] + CCNC(=O)c1noc(-c2cc(C(C)C)c(O)cc2O)c1-c1ccc(CN2CCOCC2)cc1 [Luminespib] (partner 0.01 µM)
Method in brief: as §1

Cell Line	relative viability ([1]; first compound 0.08 µM)	relative viability ([1]; first compound 0.8 µM)	relative viability ([1]; first compound 2.53 µM)	relative viability ([1]; first compound 8 µM)	relative viability ([2]; first compound 0.08 µM)	relative viability ([2]; first compound 0.8 µM)	relative viability ([2]; first compound 2.53 µM)	relative viability ([2]; first compound 8 µM)	relative viability ([3]; first compound 0.08 µM)	relative viability ([3]; first compound 0.8 µM)	relative viability ([3]; first compound 2.53 µM)	relative viability ([3]; first compound 8 µM)	relative viability ([4]; first compound 0.08 µM)	relative viability ([4]; first compound 0.8 µM)	relative viability ([4]; first compound 2.53 µM)	relative viability ([4]; first compound 8 µM)	relative viability ([5]; first compound 0.08 µM)	relative viability ([5]; first compound 0.8 µM)	relative viability ([5]; first compound 2.53 µM)	relative viability ([5]; first compound 8 µM)
HCC-366	1.05	1.05	1.05	0.986	1.08	0.919	0.882	0.874	0.0941	0.0617	0.084	0.0522	0.407	0.434	0.374	0.307				
HCC-827	1.01	1.01	1.06	1.14	1.17	1.03	1.03	1	0.43	0.393	0.423	0.423	0.824	0.828	0.839	0.837	0.748	0.708	0.627	0.612
HOP-62	0.736	0.536	0.734	0.642	1.13	1.07	1.13	1.22	0.362	0.299	0.352	0.424	0.669	0.648	0.686	0.679	0.964	0.892	0.989	1.01
IA-LM	0.891	0.669	1.1	0.98	1.14	1.11	1.31	1.38					1.13	0.937	0.656	0.939				
LC-2-ad	1.17	0.929	1.15	1.06	1.03	0.905	1.02	0.747	0.55	0.45	0.476	0.475	0.747	0.668	0.694	0.694	1.22	0.989	1.01	1.1
LCLC-97TM1	0.845	0.487	0.58	0.685	0.863	0.891	0.923	0.825	0.194	0.168	0.242	0.159	0.683	0.691	0.74	0.613	0.769	0.815	0.741	0.675
LCLC-103H	1.19	1.12	0.968	1.01	0.783	0.612	0.777	0.56	0.52	0.326	0.519	0.472	0.823	0.743	0.807	0.75	1.02	0.791	0.934	0.808
LK-2					1.32	0.962	0.927	0.892	0.174	0.152	0.179	0.162	0.362	0.323	0.33	0.222	0.22	0.182	0.154	0.172
